Laboratory results from patent publication US20060252780A1, “Fused pyrimidine derivatives” (Kyowa Hakko Kogyo Co., Ltd., priority 2003, published 2006).
Counter-ions that a name gives are not always drawn.

test system: Pancreatic β cell line MIN6 cells; assay: Insulin secretion stimulating activity in cultured β cells (MIN6), insulin in the supernatant by enzyme immunoassay or radioimmunoassay; format: cell-based; conditions: drug concentration 1.0 μmol/L, 14.5 mmol/L glucose, 45 min after stimulation, average of 3 to 4 tests, None (no drug) 148.4
Experimental: Insulin Secretion Stimulating Activity in Cultured β Cells
Pancreatic β cell line MIN6 cells reported by Miyazaki, et al. [see Endocrinology, (1990) 127, p. […] 1139-1145]. In MIN6 cells, insulin secretion increase responding to a sulfonylurea agents, such as Glybenclamide, which are used as a therapeutic agent for diabetes (Cellular Signaling, (1993) 5, p. 777-786). Therefore, the above-mentioned culture of MIN6 cells and an insulin secretion test using the MIN6 cells were performed according to the method described in Diabetologia, (1993) 36, p. 1139-1145.
The effects of a compound on an insulin secretion activity under the presence of 14.5 mmol/L glucose was determined by measuring insulin amount in cell-culture supernatant collected as follows:
MIN6 cells cultured in a 24-well plate were washed twice with 1 mL of buffer solution A (pH 7.3) containing 2 mmol/L glucose. Buffer solution A consists of 119 mmol/L sodium chloride, 4.74 mmol/L potassium chloride, 2.54 mmol/L calcium chloride, 1.19 mmol/L magnesium sulfate, 1.19 mmol/L potassium dihydrogen phosphate, 10 mmol/L 2-[4-(2-hyroxyethyl)-1-piperazinyl]ethane sulfonic acid and 0.1% bovine serum albumin. Then, the cells were incubated in 1 mL of buffer solution A containing 2 mmol/L glucose at 37° C. for 45 minutes. After the incubation, the culture supernatant was exchanged with 0.9 mL of buffer solution A containing each test compound at various concentrations and 2 mmol/L glucose. The cells were further incubated at 37° C. for 15 minutes. Then, the MIN6 cells were stimulated with glucose by adding 0.1 mL of buffer solution A containing 127 mmol/L glucose (a final glucose concentration: 14.5 mmol/L). After the stimulation, the cells were further incubated at 37° C. for 45 minutes, and the supernatant was collected.
Antibody reactive insulin secreted in the culture supernatant was diluted with a phosphate buffer solution containing 1% bovine serum albumin, 0.1% Tween 20, 0.12% ethylenediaminetetraacetic acid (EDTA) disodium salt and 0.1% sodium azide, and then quantitatively measured by enzyme immunoassay or radioimmunoassay. The insulin levels were indicated as the amount of human insulin (ng/mLY. The results are indicated by averages (avg) and standard errors (se) of 3 to 4 tests.

| Compound | Insulin secretion content (ng/mL) ave |
| --- | --- |
| CCCN1C(=O)N2C[C@@H](Cc3ccccc3)N=C2c2cc(-c3ccccc3)[nH]c21 [Compound 1, (R)-2-Benzyl-2,3-dihydro-8-phenyl-6-propyl-7H-imidazo[1,2-c]pyrrolo[3,2-e]pyrimidin-5(6H)-one] | 204.3 ng/mL |
| CCCN1C(=O)N2C[C@@H](Cc3ccccc3)N=C2c2[nH]c(-c3ccccc3)cc21 [Compound 2, (R)-8-Benzyl-7,8-dihydro-2-phenyl-4-propyl-1H-imidazo[1,2-c]pyrrolo[2,3-e]pyrimidin-5(4H)-one] | 187.1 ng/mL |
| CCCN1C(=O)N2C[C@@H](Cc3ccccc3)N=C2c2cn(-c3ccccc3)nc21 [Compound 3, (R)-2-Benzyl-2,3-dihydro-8-phenyl-6-propyl-8H-imidazo[1,2-c]pyrazolo[4,3-e]pyrimidin-5(6H)-one] | 213.2 ng/mL |
| CCCN1C(=O)N2CC(Cc3ccc(F)cc3)N=C2c2cn(-c3ccccc3)nc21 (stereo not shown) [Compound 4, 2-(4-Fluorobenzyl)-2,3-dihydro-8-phenyl-6-propyl-8H-imidazo[1,2-c]pyrazolo[4,3-e]pyrimidin-5(6H)-one] | 212.1 ng/mL |
| CCCN1C(=O)N2CC(Cc3ccc(Cl)cc3)N=C2c2cn(-c3ccccc3)nc21 (stereo not shown) [Compound 5, 2-(4-Chlorobenzyl)-2,3-dihydro-8-phenyl-6-propyl-8H-imidazo[1,2-c]pyrazolo[4,3-e]pyrimidin-5(6H)-one] | 190.9 ng/mL |
| CCCN1C(=O)N2CC(Cc3ccncc3)N=C2c2cn(-c3ccccc3)nc21 (stereo not shown) [Compound 6, 2,3-Dihydro-8-phenyl-6-propyl-2-(4-picolyl)-8H-imidazo[1,2-c]pyrazolo[4,3-e]pyrimidin-5(6H)-one] | 172.5 ng/mL |
| CCCN1C(=O)N2C[C@@H](Cc3ccccc3)N=C2c2cn(C3CCCC3)nc21 [Compound 7, (R)-2-Benzyl-8-cyclopentyl-2,3-dihydro-6-propyl-8H-imidazo[1,2-c]pyrazolo[4,3-e]pyrimidin-5(6H)-one hydrochloride] | 224.8 ng/mL |
| CCCN1C(=O)N2C[C@@H](Cc3ccncc3)N=C2c2cn(C3CCCC3)nc21 [Compound 8, (R)-8-Cyclopentyl-2,3-dihydro-6-propyl-2-(4-picolyl)-8H-imidazo[1,2-c]pyrazolo[4,3-e]pyrimidin-5(6H)-one] | 183.9 ng/mL |
| CCCN1C(=O)N2C[C@@H](Cc3ccccc3)N=C2c2nn(-c3ccccc3)cc21 [Compound 9, (R)-8-Benzyl-7,8-dihydro-2-phenyl-4-propyl-2H-imidazo[1,2-c]pyrazolo[3,4-e]pyrimidin-5(4H)-one] | 174.3 ng/mL |
| CCCN1C(=O)N2C[C@@H](Cc3ccccc3)N=C2c2nn(C3CCCC3)cc21 [Compound 10, (R)-8-Benzyl-2-cyclopentyl-7,8-dihydro-4-propyl-2H-imidazo[1,2-c]pyrazolo[3,4-e]pyrimidin-5(4H)-one hydrochloride] | 184.7 ng/mL |
